Data reported in patent publication US6818396B1, “Process for determination of the activity of a substance using an in vitro functional test” (priority 2000, dated 2004).

What was measured:
TEM-1 beta-lactamase = molecular target: T1, TEM-1 beta-lactamase (Escherichia coli, UniProt P62593); type: biochemical; conditions: for reduction of the TEM-1 activity: inhibitor 21.5 μM final
T1 construct: made in house
Description: A screening of new TEM-1 ? -lactamase inhibitors was carried out by the process of the invention. This enzyme was expressed in vitro as described by Zubay by using 300 μg of mRNA in a final translation volume of 5 ml. […] Then 3 μl of the translation mixture were added in each microtitration plaque well and the mixture was incubated 3 minutes at 25° C. The volume was then completed to 58 μl with a revelation solution (final concentration: NaP 40 mM pH 7.0, 100 μg/ml of nitrocephine and 0.25 mM DNSO). The reaction was followed by spectrophotometry at 486 nm. Three controls were carried out: one without translation extract (therefore without enzyme), one with the substrate alone, and one without any potential inhibitor.

native TEM-1 enzyme = molecular target: T2, native TEM-1 enzyme (Escherichia coli, UniProt P62593); assay: Characterization of inhibitor on native TEM-1 enzyme expressed in vitro, nitrocephine test; type: biochemical; conditions: read-out: inhibition of native TEM-1 enzyme
T2 construct: made in house
T2 sequence (P62593 24-286 limits assumed): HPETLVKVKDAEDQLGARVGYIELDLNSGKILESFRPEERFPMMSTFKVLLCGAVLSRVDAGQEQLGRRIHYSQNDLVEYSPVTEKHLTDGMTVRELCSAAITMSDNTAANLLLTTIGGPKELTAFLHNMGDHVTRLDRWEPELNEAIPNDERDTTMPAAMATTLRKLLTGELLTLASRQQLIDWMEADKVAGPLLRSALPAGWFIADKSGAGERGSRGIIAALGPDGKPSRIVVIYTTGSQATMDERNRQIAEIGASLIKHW
Description: For this 5 μl of a translation mixture expressing either the native enzyme or one of the two mutants were separately incubated at 25° C. for 3 minutes in a final volume of 500 μl of buffer I (final concentration: NaP 50 mM pH 7.0, 1.5 μM potential inhibitor #1). Then 100 μg/ml of nitrocephine and 0.25 mM final of DMSO were added, and the reaction was followed by spectrophotometry at 486 nm. The obtained results were expressed in maximum activity percentage measured on the enzyme in the absence of inhibitor.

T1 sequence (P62593 24-286 limits assumed): as above

CC1(C)[C@H](C(=O)O)N2C(=O)C[C@H]2S1(=O)=O [inhibitor #2, sulbactam]
reduction of the TEM-1 activity (TEM-1 beta-lactamase): 73%

O=C(O)[C@H]1/C(=C/CO)O[C@@H]2CC(=O)N21 [inhibitor #1, clavulanic acid]
reduction of the TEM-1 activity versus control without inhibitor (TEM-1 beta-lactamase; inhibitor 0.4 μM final, 3 minutes at 25° C. preincubation): 52% | reduction of the TEM-1 activity (TEM-1 beta-lactamase): 80% | inhibition at 1.5 µM (native TEM-1 enzyme): 87%
